Test results as given in US10509041B2, “Glucose derivative, and cell imaging method and imaging agent using said derivative” (HIROSAKI UNIVERSITY, priority 2014, dated 2019).
Several values for one entry are separate records, joined by “and”; a condition that tells them apart may be missing. Identical values can stand only once.

Tested on: mouse insulinoma cells (MIN6)
Experiment: Increase in fluorescence intensity (uptake) after administration of fluorescent glucose derivative to MIN6 cells, influence of cytochalasin B (CB) or phloretin (PHT), fluorescence microplate reader
Format: cell-based
Details: CDG 100 μM, 37° C. 5 minutes; CB 10 μM; MIN6 culture day 13; average, two independent experiments
Protocol: Increase in fluorescence intensity caused by the administration of CDG, and the influence of a glucose transporter (GLUT) inhibitor CB thereon were confirmed by targeting MIN6 cells.
A 96-well clear-bottom plate having wells of 8 rows (A to H) and 12 columns (1 to 12) (μClear-PLATE, Greiner Bio-One, BLACK) was used in measurement. A culture solution containing MIN6 cells suspended at a density of 60×10^4 cells/mL was added dropwise at 10 μL/well to the central portion of the well, and then, the plate was left standing for 40 minutes in an incubator for fixation. The cells were cultured by the addition of a culture solution at 200 μL/well (6000 cells/well). For layout, the cells were seeded to wells B to H on the third column and wells A to G on the fifth column. Medium replacement was performed by replacing half the amount with a fresh one once every two days at 0 to 4 DIV (days in vitro) and every day at 5 DIV or later. […]
CDG and 2-NBDG were each independently administered to the wells on the third and fifth columns using an 8-channel pipette such that these derivatives were alternately placed on the same plate. Before the administration, the autofluorescence of each well was measured in advance using a fluorescence microplate reader (Flex Station, Molecular Devices, LLC). […] The measurement was conducted at Bottom Read, Averaging 3, and Photomultiplier sensitivity high. […]

With `O=c1ccc2ccc(NC3C(O)OC(CO)[C@@H](O)[C@@H]3O)cc2o1` (stereo partly drawn) [CDG, 2-deoxy-2-(2-oxo-2H-chromen-7-yl)amino-D-glucose] the “fluorescence intensity in the presence of CB relative to the absence of CB” value was 47.3% and 42.9%.
